Results published in US4309428A, “Maytansinoids” (Takeda Chemical Industries, Ltd., priority 1979, dated 1982).
In brackets after ≈: the same amount, converted by molar mass. Read-outs that look alike come from different tables or passages of the source.

Columns and labels:
[1] = system: melanoma B-16 tumor cells; experiment: Antitumor activity: life span prolongation in mice with intraperitoneally transplanted melanoma B-16 (NCI protocol); type: in vivo; details: intraperitoneally once daily for 9 days
Experimental: Therapeutic tests were carried out in mice according to NCI-protocol 1,300, Cancer Chemother, Reports, Part 3, 1972, Vol. 3, No. 2, in which melanoma B-16 tumor cells had been intraperitoneally transplanted, compound (I) being administered intraperitoneally once daily for 9 consecutive days.

[2] = system: Tetrahymena pyriformis W; experiment: Antiprotozoal activity, serial dilution method; type: cell-based
Experimental: Antiprotozoal activity of compound (I) was assayed with Tetrahymena pyriformis W as the test organism and a medium composed of 20 g tryptose-peptone (Difco Co.), 1 g yeast extract, 2 g glucose, 1000 ml distilled water, 10 ml 1 M phosphate buffer (pH 7.0) as the assay medium. The microorganism was incubated at 28° C. for 44 to 48 hours and the growth inhibitory activity of compound (I) was assayed by the serial dilution method.

[3] = 28° C., 44 to 48 hours, pH 7.0, read-out: Antiprotozoal activity MIC

SMILES | Antitumor activities B-16 (T/C %) ([1]; 50 μg/kg) [%] | Antitumor activities B-16 (T/C %) ([1]; 100 μg/kg) [%] | MIC [2, 3] [µg/mL] | other results
COC1C=CC=C(C)Cc2cc(OCC(=O)c3ccccc3)c(Cl)c(c2)N(C)C(=O)CC(OC(=O)C(C)C)C2(C)OC2C(C)C2CC1(O)NC(=O)O2 (centres unmarked) [PDM-3-C20-phenacylether, PDM-3-C20-phenacyl ether] | 188 | 176 | – | Antitumor activities B-16 (T/C %) ([1]; 200 μg/kg): 211%; Antitumor activities B-16 (T/C %) ([1]; 400 μg/kg): 203%
CCOc1cc2cc(c1Cl)N(C)C(=O)CC(OC(=O)C(C)C)C1(C)OC1C(C)C1CC(O)(NC(=O)O1)C(OC)C=CC=C(C)C2 (centres unmarked) [C20 -ethoxy ether, PDM-3-C20-ethyl ether] | – | – | – | MIC ([2]; pH 7, read-out: Antiprotozoal activity MIC): ≤ 1 µg/mL
CCOCCOCCOc1cc2cc(c1Cl)N(C)C(=O)CC(OC(=O)C(C)C)C1(C)OC1C(C)C1CC(O)(NC(=O)O1)C(OC)C=CC=C(C)C2 (centres unmarked) [C20-2-(2-ethoxyethoxy)ethyl ether, PDM-3-C20-2-(2-ethoxyethoxy)ethyl ether] | – | – | 2 (≈ 2.71 µM) | –
C=CCOc1cc2cc(c1Cl)N(C)C(=O)CC(OC(=O)C(C)C)C1(C)OC1C(C)C1CC(O)(NC(=O)O1)C(OC)C=CC=C(C)C2 (centres unmarked) [C20 -allyl ether, PDM-3-C20-allyl ether] | – | – | ≤ 1 | –
COC1C=CC=C(C)Cc2cc(OCc3ccccc3)c(Cl)c(c2)N(C)C(=O)CC(OC(=O)C(C)C)C2(C)OC2C(C)C2CC1(O)NC(=O)O2 (centres unmarked) [PDM-3-C20-benzylether, PDM-3-C20-benzyl ether] | 220 | 234 | ≤ 1 | Antitumor activities B-16 (T/C %) ([1]; 25 μg/kg): 182%
CCOC(COc1cc2cc(c1Cl)N(C)C(=O)CC(OC(=O)C(C)C)C1(C)OC1C(C)C1CC(O)(NC(=O)O1)C(OC)C=CC=C(C)C2)OCC (stereo not drawn) [PDM-3-C20-(β,β-diethoxy)ethyl ether, PDM-3-C20 -β,β-diethoxyethyl ether] | 211 | 240 | – | Antitumor activities B-16 (T/C %) ([1]; 25 μg/kg): 194%
COC1C=CC=C(C)Cc2cc(OCC(=NNC(=O)c3ccncc3)c3ccccc3)c(Cl)c(c2)N(C)C(=O)CC(OC(=O)C(C)C)C2(C)OC2C(C)C2CC1(O)NC(=O)O2 (centres unmarked) [PDM-3-C20-(2-isonicotinoylhydrazono-2-phenyl)ethyl ether] | – | – | 2 to 4 (≈ 2.33 to 4.66 µM) | –
CCOC(=O)COc1cc2cc(c1Cl)N(C)C(=O)CC(OC(=O)C(C)C)C1(C)OC1C(C)C1CC(O)(NC(=O)O1)C(OC)C=CC=C(C)C2 (centres unmarked) [C20 -ethoxycarbonylmethyl ether, PDM-3-C20-ethoxycarbonylmethyl ether] | – | – | 1 to 2 (≈ 1.41 to 2.83 µM) | –
CCOC(=O)CC(=O)COc1cc2cc(c1Cl)N(C)C(=O)CC(OC(=O)C(C)C)C1(C)OC1C(C)C1CC(O)(NC(=O)O1)C(OC)C=CC=C(C)C2 (centres unmarked) [C20 -γ-ethoxycarbonylacetonyl ether, PDM-3-C20 -γ-ethoxycarbonylacetonyl ether] | – | – | 4 (≈ 5.34 µM) | –
